According to BindingDB's records for patent US20240083900 (Biogen Ma, 2024):

Target: Tyrosine-protein kinase BTK (Homo sapiens, UniProt Q06187)
Test: In Vitro BTK Kinase Assay: Btk-PolyGAT-LS Assay
Procedure: The purpose of the BTK in vitro assay is to determine compound potency against BTK through the measurement of IC50. […] For a typical assay, a 24 μL aliquot of a ATP/peptide master mix (final concentration; ATP 10 μM, polyGAT 100 nM) in kinase buffer (10 mM Tris-HCl pH 7.5, 10 mM MgCl2, 200 μM Na3PO4, 5 mM DTT, 0.01% Triton X-100, and 0.2 mg/ml casein) is added to each well. […] The assay is incubated for 30 minutes before being stopped with 28 μL of a 50 mM EDTA solution. […] The plate is covered and incubated for 45 minutes at room temperature.

Chain of Tyrosine-protein kinase BTK (Q06187 whole entry): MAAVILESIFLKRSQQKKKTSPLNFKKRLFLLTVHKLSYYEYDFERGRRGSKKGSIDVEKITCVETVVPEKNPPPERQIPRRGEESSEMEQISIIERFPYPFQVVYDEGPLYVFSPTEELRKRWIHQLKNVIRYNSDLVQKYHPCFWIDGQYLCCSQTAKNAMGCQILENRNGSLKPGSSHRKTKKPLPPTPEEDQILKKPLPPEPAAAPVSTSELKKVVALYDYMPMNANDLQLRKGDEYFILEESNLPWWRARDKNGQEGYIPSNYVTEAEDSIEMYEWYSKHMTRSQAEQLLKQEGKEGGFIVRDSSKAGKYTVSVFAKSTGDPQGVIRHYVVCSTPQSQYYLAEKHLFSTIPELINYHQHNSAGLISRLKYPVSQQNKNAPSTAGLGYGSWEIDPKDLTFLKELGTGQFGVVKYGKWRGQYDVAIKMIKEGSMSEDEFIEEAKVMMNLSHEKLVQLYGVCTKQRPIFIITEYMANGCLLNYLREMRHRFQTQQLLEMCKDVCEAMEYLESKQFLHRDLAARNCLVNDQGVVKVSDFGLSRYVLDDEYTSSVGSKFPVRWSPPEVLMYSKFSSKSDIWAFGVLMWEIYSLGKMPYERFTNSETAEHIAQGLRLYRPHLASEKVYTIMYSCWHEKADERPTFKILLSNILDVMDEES

For `Cn1cc(-c2cn3nccc3c(OC3CCN(C(=O)/C=C\CCl)CC3)n2)cn1` [US20240083900, Example 8], the IC50 was < 1 nM.
